Measurements from ChEMBL document CHEMBL3608308, “Design, synthesis and antiproliferative activity of novel heterobivalent hybrids based on imidazo[2,1-b][1,3,4]thiadiazole and imidazo[2,1-b][1,3]thiazole scaffolds” (Eur J Med Chem, 2015).

How the values were obtained:
Assay type in all cases: functional
FM3A = test: Antiproliferative activity against mouse FM3A cells assessed as inhibition of cell proliferation incubated for 2 days by Coulter counter based assay; conditions: 48 h
CCRF-CEM = test: Antiproliferative activity against human CEM cells assessed as inhibition of cell proliferation incubated for 3 days by Coulter counter based assay; conditions: 72 h
L1210 = test: Antiproliferative activity against mouse L1210 cells assessed as inhibition of cell proliferation incubated for 2 days by Coulter counter based assay; conditions: L1210, 48 h
HeLa = test: Antiproliferative activity against human HeLa cells assessed as inhibition of cell proliferation incubated for 4 days by Coulter counter based assay; conditions: 96 h

Compound `Nc1cccc(-c2cn3nc(Cc4ccc(Cl)cc4)sc3n2)c1` has an IC50 (FM3A) of 6 µM, an IC50 (CCRF-CEM) of 42 µM and an IC50 (L1210) of 16 µM. It also gave an IC50 (HeLa) of 25 µM.
With `C=C(Br)C(=O)Nc1cccc(-c2cn3c(-c4ccc(Cl)cc4)csc3n2)c1` the IC50 (FM3A) was 1.1 µM, the IC50 (CCRF-CEM) was 2.2 µM and the IC50 (L1210) was 1.9 µM. It also gave an IC50 (HeLa) of 3 µM.
`C=C(Br)C(=O)Nc1cccc(-c2cn3nc(-c4ccc(OCC)cc4)sc3n2)c1` showed an IC50 (FM3A) of 1.1 µM, an IC50 (CCRF-CEM) of 1.4 µM and an IC50 (L1210) of 0.79 µM. For the same compound, the IC50 (HeLa) was 1.1 µM.
Compound `C=C(Br)C(=O)Nc1cccc(-c2cn3nc(-c4cccc(OC)c4)sc3n2)c1` has an IC50 (FM3A) of 0.5 µM, an IC50 (CCRF-CEM) of 1.2 µM and an IC50 (L1210) of 0.58 µM. It also gave an IC50 (HeLa) of 1.1 µM.
Compound `COc1ccc(-c2nn3cc(-c4cccc(N)c4)nc3s2)cc1OC` has an IC50 (FM3A) of 13 µM, an IC50 (CCRF-CEM) of 14 µM and an IC50 (L1210) of 16 µM. It also gave an IC50 (HeLa) of 26 µM.
`COc1ccc(-c2csc3nc(-c4cccc(N)c4)cn23)cc1` showed an IC50 (FM3A) of 11 µM, an IC50 (CCRF-CEM) of 6.1 µM and an IC50 (L1210) of 19 µM. It also gave an IC50 (HeLa) of 19 µM.
